Experimental data reported in US7763287B2, “Extract of Cercis chinensis having anti-oxidant activity and anti-aging activity, and cosmetical composition containing the extract for anti-oxidation, skin-aging protection and wrinkle improvement” (Hankook Pharm. Co., Inc., priority 2002, dated 2010).

Legend:
[1] = DPPH radical scavenging activity; assay type: biochemical
Protocol: In order to extract an effective ingredient having an anti-oxidant activity from Cercis chinensis, an experiment was performed following the procedure represented in a schematic diagram of FIG. 1. Particularly, 1 kg of leaves and stems of Cercis chinensis, dried in shadow, were grinded to powder using a pulverizer, which was extracted by ethanol (EtOH) at room temperature twice at intervals of two weeks. For the extraction, ethanol solutions were prepared by adding ethanol gradually, 10% at a time, from 0% to 100%. The prepared ethanol solutions were used for the extraction. […] But, it looses absorbance when being scavenged. Based on that point, an anti-oxidant activity can be measured using DPPH. […] Then, each solution was distributed into a 96 well plate by 10 μl each, into which 190 μl of DPPH(Sigma, St. Louis, Mo, USA) solution whose ethanol concentration was 2×10^−4 M/ml was added. The plate was just left at room temperature for 30 minutes. Finally, OD517 was measured at 517 nm. For a control, DMSO was added instead of the sample, and changes of optical density were investigated. […] DDPH Radical Scavenging Activity (%)=(Acontrol−Asample)/(Acontrol)×100 <Mathematica Formula 1>
Acontrol: Optical density of control group (sample was not added),
Asample: Optical density of experimental group (sample was added).
In order to identify a fraction having an anti oxidant activity among hexane Fr, EtOAc Fr and BuOH Fr obtained above, a DPPH radical scavenging activity was measured using each extract of each fraction following the method used above. At this time, vitamin E, known to have high DPPH radical scavenging activity, was used as a comparing group.
At this time, BHA (tert-butyl-4 hydroxyanisole) and α-tocopherol, synthetic anti-oxidant agents, were used as positive controls.

HEK-N/F cells = test: Cell protection from UV irradiation (DNA damage, ethidium homodimer fluorescence); assay type: cell-based, human; details: 35 mJ/cm^2 UVB, Et2 fluorescence (DNA damage)
Protocol: UV irradiation induces DNA damage and DNA-protein connection by increasing active oxygen in cells. When HEK-N/F cells were irradiated by 35 mJ/cm^2 of UVB, DNA chains in nucleus were cut. After uniting the broken chains to ethidium homodimer (Et2), a DNA chain intercalating fluorescent dye, extent of fluorescence was measured to quantify the amount of DNA damage. Particularly, HEK-N/F cells were cultured on serum-free KGM medium (Clonetics), which were inoculated into wells of a 24-well plate by 0.5−4×10^4 cells/2 cm^2. Then, the cells were cultured for 18 hours, after which a sample was treated thereto for 2 hours. […] The cells exposed on UV were further cultured for 1-7 hours, and then, […] ethidium homodimer (Et2, Millipore) was added. 30 minutes later, fluorescence was measured with Millipore microplate fluorometer Cytofluor 2350 (excitation: 485 nm, emission: 645 nm).

O=c1c(O)c(-c2cc(O)c(O)c(O)c2)oc2cc(O)cc(O)c12 [Chemical Formula 9, myricetin]
DPPH radical scavenging activity (in words) [1]: strong radical scavenging activity
DPPH radical scavenging activity IC50 ([1]; Table 3): 7.3 ± 0.3 µg/mL
fluorescence lower than that of a control (HEK-N/F cells): 54.7%
